{"source": "patent US20160022689A1", "about": "“Triazine compound for resisting coccidiosis in chickens” (SHANGHAI VETERINARY RESEARCH INSTITUTE, CHINESE ACADEMY OF …, priority 2013, published 2016)", "key": {"[1]": {"test_system": "Eimeria tenella", "assay": "AZL application in preventing the coccidiosis induced by Eimeria tenella (drug in feed, infected cockerels)", "type": "in vivo", "parameters": "key to ACI (anticoccidial index): ACI = (rel. weight gain + survival) − (lesion score + oocyst value); key to Cecal lesion score: average Johnson-Reid lesion score in group ×10", "details": "for ACI (anticoccidial index): ACI=(relative weight gain rate+survival rate)-(cecal lesion score+oocyst value); for Cecal lesion score: average lesion score in group x10; for Survival rate %: cockerels infected with 80000 sporulated oocysts of Eimeria tenella; for Relative weight gain rate %: relative to healthy control group; for Oocyst value: score from OPG ratio to infection control", "description": "Application of AZL in Preventing the Coccidiosis Induced by Eimeria tenella\nOne-day-old Pudong yellow feather cockerels\nIf needed, it is added into the chicken compound feed without other drugs and well mixed. Two AZL concentrations are set: 5 mg/kg and 10 mg/kg.\nIf needed, it is added into the compound feed without other drugs and well mixed. Two drug concentrations are set: 5 mg/kg and 10 mg/kg.\n4) Raw diclazuril material: If needed, it is added into the compound feed without other drugs and well mixed, with the diclazuril concentration of 1 mg/kg.\nAfter 90 one-day-old Pudong yellow feather cockerels were raised in the healthy animal room for 14 days. They were divided into 9 groups randomly, with 10 cockerels each group. One of these groups was the healthy control group. The AZL addition groups had two different treatments (5 mg/kg and 10 mg/kg). In the groups with the addition of compounds with structural formula (IV) and (V) respectively, two concentrations were set as AZL. The diclazuril addition group at the concentration of 1 mg/kg was taken as drug control group. Besides, an infection control group was also established.\nAfter grouping, the seven drug addition groups were fed with the feed containing specified drugs, while infection and healthy control groups were fed using pure feed without drugs. Each group drank freely. At the age of 15 day old, each cockerel in all the groups was infected with 80000 sporulated oocysts of Eimeria tenella, except for the healthy control group.\nDuring the experimental period, food and water intake, mental state, illness and bloody stool were observed and recorded every day. At 5, 6 and 7 d after infection, the excrement in each group was collected to count the number of oocysts. The highest value was used for ACI calculation. During the experimental period, chicken death status was observed every day and the dead ones were autopsied. On the 8th day, chickens in all the groups were weighted and killed to observe and record weight gain and cecal lesion status.\n1.5.1 Death rate: The percentage of the number of dead chicken because of infection to total number of experimental chicken.\n1.5.2 Relative weight gain rate: The percentage of average weight gain of chickens in each infection group to that in the healthy control group\n1.5.3 Cecal lesion score: It is scored by referring to the method by Johnson and Reid (Johnson J, Reid W M. Anticoccidial drugs: lesion scoring techniques in battery and floor-pan experiments with chickens.\nExperimental Parasitology, 1970, 28 (1): 30-36). Cecal lesion score=average lesion score in a group×10.\n1.5.4 Oocyst value: Cecal contents from all the chickens in each group were well mixed. The number of oocysts per gram (OPG) was calculated via Mc-Master's method. Ratio of oocyst number=(OPG in the negative control group or drug addition group÷OPG in the positive control group)×100% If the ratio is 0-1%, oocyst value is 0; if the ratio is 2%-25%, oocyst value is 5; if the ratio is 26%-50%, oocyst value is 10; if the ratio is 51%-75%, oocyst value is 20; if the ratio is 76%-100%, oocyst value is 40.\n1.5.5 Anticoccidial index: ACI=(relative weight gain rate+survival rate)−(cecal lesion score+oocyst value)"}, "[2]": {"test_system": "rats", "details": "acute oral, improved Karber's method; cited from earlier work"}, "[3]": {"assay": "Acute toxicity test (LD50) of AZL in rats, oral gavage", "type": "in vivo, rat", "details": "both sexes, Sprague Dawley, rat, in vivo, po, single oral gavage, improved Karber's method", "description": "(§1) Acute Toxicity Test (LD50) of AZL in Rats\n(§2) AZL (99.10%): made by Shanghai Veterinary Research Institute, CAAS\n(§3) Drug solvent: 0.5% sodium carboxymethyl cellulose\n(§4) Before administration, AZL was added into 0.5% sodium carboxymethyl cellulose to prepare suspensions at different concentrations.\n(§5) 1.2 Experimental animals: Specific pathogen-free (SPF) Sprague Dawley rats (50% female vs 50% male) were purchased from Shanghai Super-B&K laboratory animal Co., Ltd. (license number: SCXK (Hu): 2008-0016). Male and female rats were raised separately in the cages for more than 4 days before the experiments.\n(§6) Through repeated preliminary experiments, the interval of LD0-LD100 was determined According to this interval, groups were divided and the interval between groups was determined. Eighty rats (180-220 g) were selected and randomly divided into 8 groups. Each group had 10 rats, with the same number of female and male. Drug dosage in 7 groups were 2358, 3000, 3817, 4856, 6178, 7860, and 10000 mg/kg, respectively. The rats in these groups received oral gavage once. The remaining one group was chosen as negative control group which was drenched orally with drug solvent. After administration, this group was continuously observed for 14 days to calculate the death rate."}, "[4]": {"test_system": "Sprague Dawley rats", "assay": "Acute toxicity test (LD50) of AZL in rats, oral gavage", "type": "in vivo, rat", "details": "oral gavage once, 14 days", "description": "as §1, §2, §3, §4, §5, §6"}, "[5]": {"details": "drug concentration in feed 5 mg/kg"}, "[6]": {"details": "drug concentration in feed 10 mg/kg"}, "[7]": {"details": "drug concentration in feed 1 mg/kg"}}, "note": "“And” between values parts separate entries of the source, which are not always exact repeats. Identical values can stand only once. Like-named read-outs stand apart in the source and are kept apart here."}
{"molecule": "Cc1cc(-n2ncc(=O)[nH]c2=O)ccc1Oc1ccc([N+](=O)[O-])cc1", "note": "[Compound with structural formula IV, 2-{3-methyl-4-(4′-nitrophenoxy)phenyl}-1,2,4-triazine-3,5(2H,4H)-diketone, reference compound]", "values": [{"measurement": "ACI (anticoccidial index)", "setting": "[1]; [5]", "value": 182.2}, {"measurement": "Cecal lesion score", "setting": "[1]; [5]", "value": 5}, {"measurement": "Survival rate %", "setting": "[1]; [5]", "value": 100, "unit": "%"}, {"measurement": "Relative weight gain rate %", "setting": "[1]; [5]", "value": 92.2, "unit": "%"}, {"measurement": "Oocyst value", "setting": "[1]; [5]", "value": 5}, {"measurement": "ACI (anticoccidial index)", "setting": "[1]; [6]", "value": 190.0}, {"measurement": "Cecal lesion score", "setting": "[1]; [6]", "value": 5}, {"measurement": "Survival rate %", "setting": "[1]; [6]", "value": 100, "unit": "%"}, {"measurement": "Relative weight gain rate %", "setting": "[1]; [6]", "value": 95.0, "unit": "%"}, {"measurement": "Oocyst value", "setting": "[1]; [6]", "value": 0}, {"measurement": "95% confidence limit of LD50", "setting": "[2]", "value": "644 to 916", "unit": "mg/kg"}, {"measurement": "median lethal dose (LD50)", "setting": "[2]", "value": 768, "unit": "mg/kg"}]}
{"molecule": "CC(=O)Nc1ccc(Oc2ccc(-n3ncc(=O)[nH]c3=O)cc2C)cc1", "note": "[AZL, 2-{3-methyl-4-(4′-acetamidophenoxy)phenyl}-1,2,4-triazine-3,5(2H,4H)^− diketone]", "values": [{"measurement": "ACI (anticoccidial index)", "setting": "[1]; [5]", "value": 180.8}, {"measurement": "Cecal lesion score", "setting": "[1]; [5]", "value": 5}, {"measurement": "Survival rate %", "setting": "[1]; [5]", "value": 100, "unit": "%"}, {"measurement": "Relative weight gain rate %", "setting": "[1]; [5]", "value": 90.8, "unit": "%"}, {"measurement": "Oocyst value", "setting": "[1]; [5]", "value": 5}, {"measurement": "ACI (anticoccidial index)", "setting": "[1]; [6]", "value": "189 and 189.1"}, {"measurement": "ACI (anticoccidial index)", "setting": "[1]; drug concentration in feed 10 mg/kg, listed as compound with structural formula (I)", "value": 189}, {"measurement": "Cecal lesion score", "setting": "[1]; [6]", "value": 5}, {"measurement": "Survival rate %", "setting": "[1]; [6]", "value": 100, "unit": "%"}, {"measurement": "Relative weight gain rate %", "setting": "[1]; [6]", "value": 99.1, "unit": "%"}, {"measurement": "Oocyst value", "setting": "[1]; [6]", "value": 5}, {"measurement": "LD50 at 14 days", "setting": "[3]; 14 days observation, read-out: LD50", "value": 4740, "unit": "mg/kg"}, {"measurement": "LD50 at 14 days", "setting": "[3]; read-out: 95% confidence limit of LD50", "value": "3750 to 5990", "unit": "mg/kg"}, {"measurement": "Death rate %", "setting": "[4]; dosage 2358 mg/kg", "value": 0, "unit": "%"}, {"measurement": "Death rate %", "setting": "[4]; dosage 3000 mg/kg", "value": 30, "unit": "%"}, {"measurement": "Death rate %", "setting": "[4]; dosage 3817 mg/kg", "value": 50, "unit": "%"}, {"measurement": "Death rate %", "setting": "[4]; dosage 4856 mg/kg", "value": 50, "unit": "%"}, {"measurement": "Death rate %", "setting": "[4]; dosage 6178 mg/kg", "value": 70, "unit": "%"}, {"measurement": "Death rate %", "setting": "[4]; dosage 7860 mg/kg", "value": 70, "unit": "%"}, {"measurement": "Death rate %", "setting": "[4]; dosage 10000 mg/kg", "value": 90, "unit": "%"}]}
{"molecule": "N#CC(c1ccc(Cl)cc1)c1c(Cl)cc(-n2ncc(=O)[nH]c2=O)cc1Cl", "note": "(centres unmarked) [Diclazuril, diclazuril, reference compound]", "values": [{"measurement": "ACI (anticoccidial index)", "setting": "[1]; [7]", "value": 182.1}, {"measurement": "Cecal lesion score", "setting": "[1]; [7]", "value": 5}, {"measurement": "Survival rate %", "setting": "[1]; [7]", "value": 100, "unit": "%"}, {"measurement": "Relative weight gain rate %", "setting": "[1]; [7]", "value": 92.1, "unit": "%"}, {"measurement": "Oocyst value", "setting": "[1]; [7]", "value": 5}]}
{"molecule": "Cc1cc(-n2ncc(=O)[nH]c2=O)ccc1Oc1ccc(N)cc1", "note": "[Compound with structural formula V, 2-{3-methyl-4-(4′-aminophenoxy)phenyl}-1,2,4-triazine-3,5(2H,4H)^− diketone]", "values": [{"measurement": "ACI (anticoccidial index)", "setting": "[1]; [5]", "value": 151.5}, {"measurement": "Cecal lesion score", "setting": "[1]; [5]", "value": 15}, {"measurement": "Survival rate %", "setting": "[1]; [5]", "value": 100, "unit": "%"}, {"measurement": "Relative weight gain rate %", "setting": "[1]; [5]", "value": 81.5, "unit": "%"}, {"measurement": "Oocyst value", "setting": "[1]; [5]", "value": 15}, {"measurement": "ACI (anticoccidial index)", "setting": "[1]; [6]", "value": 158.1}, {"measurement": "Cecal lesion score", "setting": "[1]; [6]", "value": 10}, {"measurement": "Survival rate %", "setting": "[1]; [6]", "value": 100, "unit": "%"}, {"measurement": "Relative weight gain rate %", "setting": "[1]; [6]", "value": 83.1, "unit": "%"}, {"measurement": "Oocyst value", "setting": "[1]; [6]", "value": 15}]}
